{"source": "paper PMC8617031", "about": "“Development of a BCL-xL and BCL-2 dual degrader with improved anti-leukemic activity,” (Nature Communications, 2021)", "type_in_all_cases": "cell-based, human", "key": {"Kasumi-1 cells": {"tested_on": "Kasumi-1 cells", "test": "Viability (MTS) of Kasumi-1 AML cells", "details": "for viability at 0.0411523 µM / viability at 0.37037 µM / viability at 1.11111 µM / viability at 3.33333 µM / viability at 10 µM / viability at […] / IC50: Homo sapiens; for viability at 0.0411523 µM: Kasumi 1, Concentration 0.0411523 uM; for viability at 0.0411523 µM / viability at 0.37037 µM / viability at 1.11111 µM / viability at 3.33333 µM / viability at 10 µM / viability at […]: Supplementary Fig. 12b; for viability at 0.37037 µM: Kasumi 1, Concentration 0.37037 uM; for viability at 1.11111 µM: Kasumi 1, Concentration 1.11111 uM; for viability at 3.33333 µM: Kasumi 1, Concentration 3.33333 uM; for viability at 10 µM: Kasumi 1, Concentration 10 uM; for viability at […]: Kasumi 1, Concentration […]; for IC50: Kasumi 1, 72 h"}, "[1]": {"test": "Viability (MTS) of 293T cells", "details": "human", "procedure,_shortened": "(§1)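 Adherent cells treated after overnight attachment, nine concentrations in triplicate. After 72 h, MTS/PMS added and incubated 4 h at 37 °C before absorbance at 490 nm. Background-subtracted viability expressed as percent of untreated controls and fitted by non-linear regression.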"}, "[2]": {"test": "Viability (MTS) of Hela cells", "details": "human, Hela cells; for viability at 72 h, 0.00137174 uM: MTS absorbance 490, Conc 0.00137174 uM; for viability at 72 h, 0.00411523 uM: MTS absorbance 490, Conc 0.00411523 uM; for viability at 72 h, 0.037037 uM: MTS absorbance 490, Conc 0.037037 uM; for viability at 72 h, 0.333333 uM: MTS absorbance 490, Conc 0.333333 uM; for viability at 72 h, 1 uM: MTS absorbance 490, Conc 1 uM; for viability at 72 h, 3 uM: MTS absorbance 490, Conc 3 uM", "procedure,_shortened": "as §1"}, "[3]": {"details": "Average of 3 wells, read-out: MTS viability, percent of 0 uM control, Average"}, "[4]": {"details": "single well, read-out: MTS viability, corrected absorbance 490 as percent of 0 uM control"}, "[5]": {"details": "293T cell viability, MTS absorbance 490 as percent of untreated control, mean of three wells, mean of 3 wells, normalised to own plate"}, "[6]": {"details": "293T cell viability, MTS absorbance 490 as percent of untreated control, single replicate well, replicate well, normalised to own plate"}, "[7]": {"details": "read-out: cell viability normalised to control wells (mean of three replicates)"}, "[8]": {"details": "read-out: cell viability normalised to control wells (single replicate)"}}, "note": "Where “and” joins values, the source holds several entries; their conditions need not be identical. Equal entries are not always repeated. Where two headings read alike, the source gives them in different places."}
{"compound": "CC1(C)CCC(c2ccc(Cl)cc2)=C(CN2CCN(c3ccc(C(=O)NS(=O)(=O)c4ccc(N[C@H](CCN5CCOCC5)CSc5ccccc5)c(S(=O)(=O)C(F)(F)F)c4)cc3)CC2)C1", "note": "[ABT263, navitoclax]", "values": [{"measurement": "Luminescence (raw plate reading)", "setting": "Kasumi-1 cells; 3.90625 nM (plate column 2), Fig. 7a", "result": "652130 and 630259 and 658966 and 744397"}, {"measurement": "Luminescence (raw plate reading)", "setting": "Kasumi-1 cells; 7.8125 nM (plate column 3), Fig. 7a", "result": "632892 and 633903 and 634701 and 712997"}, {"measurement": "Luminescence (raw plate reading)", "setting": "Kasumi-1 cells; 15.625 nM (plate column 4), Fig. 7a", "result": "642408 and 622919 and 622003 and 704279"}, {"measurement": "Luminescence (raw plate reading)", "setting": "Kasumi-1 cells; 31.25 nM (plate column 5), Fig. 7a", "result": "622577 and 612176 and 601421 and 652847"}, {"measurement": "Luminescence (raw plate reading)", "setting": "Kasumi-1 cells; 62.5 nM (plate column 6), Fig. 7a", "result": "542999 and 553178 and 531814 and 597127"}, {"measurement": "Luminescence (raw plate reading)", "setting": "Kasumi-1 cells; 125 nM (plate column 7), Fig. 7a", "result": "381320 and 423693 and 412676 and 432347"}, {"measurement": "Luminescence (raw plate reading)", "setting": "Kasumi-1 cells; 250 nM (plate column 8), Fig. 7a", "result": "247450 and 230935 and 221189 and 256346"}, {"measurement": "Luminescence (raw plate reading)", "setting": "Kasumi-1 cells; 500 nM (plate column 9), Fig. 7a", "result": "119937 and 119731 and 112901 and 107498"}, {"measurement": "Luminescence (raw plate reading)", "setting": "Kasumi-1 cells; 1000 nM (plate column 10), Fig. 7a", "result": "56843 and 48094 and 45547 and 41795"}, {"measurement": "Luminescence (raw plate reading)", "setting": "Kasumi-1 cells; 2000 nM = 2U (plate column 11), Fig. 7a", "result": "20891 and 18712 and 20895 and 17813"}, {"measurement": "Luminescence (raw plate reading)", "setting": "Kasumi-1 cells; 4000 nM = 4U (plate column 12), Fig. 7a", "result": "11066 and 13361 and 10294 and 10997"}, {"measurement": "Luminescence normalised to mean of the 0 concentration wells (= 100), viability", "setting": "Kasumi-1 cells; 3.90625 (nM), Fig. 7a", "result": "95.2795 and 92.0841 and 96.2783 and 108.76"}, {"measurement": "Luminescence normalised to mean of the 0 concentration wells (= 100), viability", "setting": "Kasumi-1 cells; 7.8125 (nM), Fig. 7a", "result": "92.4688 and 92.6165 and 92.7331 and 104.173"}, {"measurement": "Luminescence normalised to mean of the 0 concentration wells (= 100), viability", "setting": "Kasumi-1 cells; 15.625 (nM), Fig. 7a", "result": "93.8591 and 91.0117 and 90.8778 and 102.899"}, {"measurement": "Luminescence normalised to mean of the 0 concentration wells (= 100), viability", "setting": "Kasumi-1 cells; 31.25 (nM), Fig. 7a", "result": "90.9617 and 89.442 and 87.8707 and 95.3843"}, {"measurement": "Luminescence normalised to mean of the 0 concentration wells (= 100), viability", "setting": "Kasumi-1 cells; 62.5 (nM), Fig. 7a", "result": "79.3349 and 80.8221 and 77.7007 and 87.2433"}, {"measurement": "Luminescence normalised to mean of the 0 concentration wells (= 100), viability", "setting": "Kasumi-1 cells; 125 (nM), Fig. 7a", "result": "55.7128 and 61.9037 and 60.2941 and 63.1681"}, {"measurement": "Luminescence normalised to mean of the 0 concentration wells (= 100), viability", "setting": "Kasumi-1 cells; 250 (nM), Fig. 7a", "result": "36.1537 and 33.7408 and 32.3168 and 37.4535"}, {"measurement": "Luminescence normalised to mean of the 0 concentration wells (= 100), viability", "setting": "Kasumi-1 cells; 500 (nM), Fig. 7a", "result": "17.5234 and 17.4933 and 16.4954 and 15.706"}, {"measurement": "Luminescence normalised to mean of the 0 concentration wells (= 100), viability", "setting": "Kasumi-1 cells; 1000 (nM), Fig. 7a", "result": "8.305 and 7.027 and 6.655 and 6.106"}, {"measurement": "Luminescence normalised to mean of the 0 concentration wells (= 100), viability", "setting": "Kasumi-1 cells; 2000 (nM, 2U), Fig. 7a", "result": "3.052 and 2.734 and 3.053 and 2.603"}, {"measurement": "Luminescence normalised to mean of the 0 concentration wells (= 100), viability", "setting": "Kasumi-1 cells; 4000 (nM, 4U), Fig. 7a", "result": "1.6168 and 1.952 and 1.504 and 1.607"}, {"measurement": "viability at 0.0411523 µM", "setting": "Kasumi-1 cells; [3]", "result": 92.4, "unit": "%"}, {"measurement": "viability at 0.0411523 µM", "setting": "Kasumi-1 cells; [4]", "result": 91, "unit": "%"}, {"measurement": "viability at 0.37037 µM", "setting": "Kasumi-1 cells; [3]", "result": 20.7, "unit": "%"}, {"measurement": "viability at 0.37037 µM", "setting": "Kasumi-1 cells; [4]", "result": 21.4, "unit": "%"}, {"measurement": "viability at 1.11111 µM", "setting": "Kasumi-1 cells; [3]", "result": 18, "unit": "%"}, {"measurement": "viability at 1.11111 µM", "setting": "Kasumi-1 cells; [4]", "result": 16.5, "unit": "%"}, {"measurement": "viability at 3.33333 µM", "setting": "Kasumi-1 cells; [3]", "result": 13.1, "unit": "%"}, {"measurement": "viability at 3.33333 µM", "setting": "Kasumi-1 cells; [4]", "result": 13.4, "unit": "%"}, {"measurement": "viability at 10 µM", "setting": "Kasumi-1 cells; [3]", "result": 12.1, "unit": "%"}, {"measurement": "viability at 10 µM", "setting": "Kasumi-1 cells; [4]", "result": 12.3, "unit": "%"}, {"measurement": "viability at […]", "setting": "Kasumi-1 cells; [3]", "result": 78.8, "unit": "%"}, {"measurement": "viability at […]", "setting": "Kasumi-1 cells; [4]", "result": 78.2, "unit": "%"}, {"measurement": "IC50", "setting": "Kasumi-1 cells; Fig. 7a, read-out: IC50, viability of Kasumi-1 AML cells", "result": 156, "unit": "nM"}, {"measurement": "IC50", "setting": "Kasumi-1 cells; Fig. 7c, read-out: IC50, viability of Kasumi-1 cells", "result": 131, "unit": "nM"}, {"measurement": "viability at 72 h, 0.00137174 µM", "setting": "[1]", "result": 96.2, "unit": "%"}, {"measurement": "viability at 72 h, 0.00411523 µM", "setting": "[1]", "result": 94.4, "unit": "%"}, {"measurement": "viability at 72 h, 0.037037 µM", "setting": "[1]; 293T cell viability, MTS absorbance 490 as percent of untreated control, mean of three wells, 0.037037 uM, mean of 3 wells, normalised to own plate", "result": 107, "unit": "%"}, {"measurement": "viability at 72 h, 0.111111 µM", "setting": "[1]; 293T cell viability, MTS absorbance 490 as percent of untreated control, mean of three wells, 0.111111 uM, mean of 3 wells, normalised to own plate", "result": 113, "unit": "%"}, {"measurement": "viability at 72 h, 0.333333 µM", "setting": "[1]; [5]", "result": 103, "unit": "%"}, {"measurement": "viability at 72 h, 1 µM", "setting": "[1]; [5]", "result": 98.5, "unit": "%"}, {"measurement": "viability at 72 h, 3 µM", "setting": "[1]; [5]", "result": 61.1, "unit": "%"}, {"measurement": "viability at 72 h, 0.333333 µM", "setting": "[1]; [6]", "result": 94.3, "unit": "%"}, {"measurement": "viability at 72 h, 1 µM", "setting": "[1]; [6]", "result": 93.3, "unit": "%"}, {"measurement": "viability at 72 h, 3 µM", "setting": "[1]; [6]", "result": 60.7, "unit": "%"}, {"measurement": "viability at 72 h, 0.00137174 uM", "setting": "[2]; [7]", "result": 108, "unit": "%"}, {"measurement": "viability at 72 h, 0.00137174 uM", "setting": "[2]; [8]", "result": 115, "unit": "%"}, {"measurement": "viability at 72 h, 0.00411523 uM", "setting": "[2]; [7]", "result": 99.8, "unit": "%"}, {"measurement": "viability at 72 h, 0.00411523 uM", "setting": "[2]; [8]", "result": 106, "unit": "%"}, {"measurement": "viability at 72 h, 0.037037 uM", "setting": "[2]; [7]", "result": 97, "unit": "%"}, {"measurement": "viability at 72 h, 0.037037 uM", "setting": "[2]; [8]", "result": 103, "unit": "%"}, {"measurement": "viability at 72 h, 0.111111 uM", "setting": "[2]; MTS absorbance 490, Conc 0.111111 uM, read-out: cell viability normalised to control wells (mean of three replicates)", "result": 89.9, "unit": "%"}, {"measurement": "viability at 72 h, 0.333333 uM", "setting": "[2]; [7]", "result": 80.4, "unit": "%"}, {"measurement": "viability at 72 h, 0.333333 uM", "setting": "[2]; [8]", "result": 80.9, "unit": "%"}, {"measurement": "viability at 72 h, 1 uM", "setting": "[2]; [7]", "result": 81, "unit": "%"}, {"measurement": "viability at 72 h, 1 uM", "setting": "[2]; [8]", "result": 76.8, "unit": "%"}, {"measurement": "viability at 72 h, 3 uM", "setting": "[2]; [7]", "result": 80.1, "unit": "%"}, {"measurement": "viability at 72 h, 3 uM", "setting": "[2]; [8]", "result": 83.1, "unit": "%"}]}
